How the values were obtained:
MT4 = test: Cytotoxicity against human MT4 cells assessed as reduction in cell viability after 5 days by MTT assay; type: functional; conditions: MT4, 120 h, time 5 day
[1] = Selectivity index, ratio of CC50 for cytotoxicity against human MT4 cells to EC50 for antiviral activity against wild type HIV-1 IIIB infected in human MT4 cells; type: toxicity, cell-based; conditions: read-out: Selectivity Index
[2] = system: Human immunodeficiency virus 1; test: Antiviral activity against wild type HIV-1; type: functional, organism-based
[3] = system: Human immunodeficiency virus 1; test: Antiviral activity against HIV1 harboring E138K mutant infected in MT4 cells; type: functional, organism-based; conditions: Human immunodeficiency virus 1, MT4
[4] = system: Human immunodeficiency virus 1; test: Antiviral activity against HIV-1 […] mutant; type: functional, organism-based
[5] = system: Human immunodeficiency virus 1; test: Antiviral activity against HIV1 harboring Y181C mutant infected in MT4 cells; type: functional, organism-based; conditions: Human immunodeficiency virus 1, MT4
[6] = system: Human immunodeficiency virus 1; test: Antiviral activity against HIV1 harboring K103N mutant infected in MT4 cells; type: functional, organism-based; conditions: Human immunodeficiency virus 1, MT4
[7] = system: Human immunodeficiency virus 1; test: Antiviral activity against HIV1 harboring Y188L mutant infected in MT4 cells; type: functional, organism-based; conditions: Human immunodeficiency virus 1, MT4
[8] = system: Human immunodeficiency virus 1; test: Antiviral activity against HIV1 harboring F227L/V106A double mutant infected in MT4 cells; type: functional, organism-based; conditions: Human immunodeficiency virus 1, MT4
[9] = system: Human immunodeficiency virus 1; test: Antiviral activity against HIV1 harboring K103N/Y181C double mutant; type: functional, organism-based
MT2 = test: Cytotoxicity against human MT2 cells; type: functional
[10] = system: Human immunodeficiency virus 1; test: Antiviral activity against HIV-1 3B harboring E138K mutant infected in MT4 cells assessed as reduction in virus induced cytopathic effect incubated for 5 days by MTT assay; type: functional, organism-based; conditions: Human immunodeficiency virus 1, 3B, MT4, 120 h
[11] = system: Human immunodeficiency virus 1; test: Antiviral activity against HIV1 harboring K103N mutant infected in MT4 cells assessed as inhibition of viral growth; type: functional, organism-based; conditions: Human immunodeficiency virus 1, MT4
[12] = system: Human immunodeficiency virus 1; test: Antiviral activity against wild type HIV-1 3B infected in human MT4 cells assessed as inhibition of virus-induced cytopathic effect measured for 5 days by MTT assay; type: functional, organism-based; conditions: Human immunodeficiency virus 1, 3B, MT4, 120 h
[13] = system: Human immunodeficiency virus 1; test: Antiviral activity against HIV-1 3B harboring L100I mutant infected in MT4 cells assessed as reduction in virus induced cytopathic effect incubated for 5 days by MTT method; type: functional, organism-based; conditions: Human immunodeficiency virus 1, 3B, MT4, 120 h
[14] = system: Human immunodeficiency virus 1; test: Antiviral activity against NNRTI-resistant HIV-1 harboring Y181C mutant assessed as inhibition of viral growth; type: functional, organism-based
[15] = system: Human immunodeficiency virus 1; test: Antiviral activity against HIV-1 Y188L mutant infected in human MT4 cells assessed as reduction in virus induced cytopathic effect incubated for 5 days by MTT method; type: functional, organism-based; conditions: Human immunodeficiency virus 1, MT4, 120 h
[16] = system: Human immunodeficiency virus 1; test: Antiviral activity against HIV-1 3B harboring F227L/V106A double mutant infected in MT4 cells assessed as reduction in virus induced cytopathic effect incubated for 5 days by MTT method; type: functional, organism-based; conditions: Human immunodeficiency virus 1, 3B, MT4, 120 h
[17] = Metabolic stability in human liver microsomes assessed as half life measured upto 120 mins by LC-MS/MS analysis; type: ADME, Microsome
[18] = Metabolic stability in human liver microsomes assessed as intrinsic clearance measured for 60 mins by LC-MS/MS analysis; type: ADME, Microsome; conditions: read-out: CLH
MOLT-4 = test: Cytotoxicity against human MOLT-4 cells assessed as reduction in cell viability by MTT assay; type: functional
[19] = Aqueous solubility of compound at pH 7.4 incubated for 24 hrs by LC-MS/MS analysis; type: physicochemical; conditions: buffer
[20] = biological target: Human immunodeficiency virus type 1 reverse transcriptase (Human immunodeficiency virus 1, UniProt Q72547); test: Inhibition of wild type HIV-1 Reverse transcriptase

In the case of `Cc1cc(-c2ccc(C#N)cc2)cc(C)c1Nc1ccnc(Nc2ccc(C#N)cc2)n1`, the CC50 (MT4) is reported as 2.08 µM and the selectivity ratio [1] is reported as 2060.
For `N#Cc1ccc(Nc2ncc(C(N)=O)c(Oc3ccc4cc(C#N)ccc4c3)n2)cc1`, the EC50 [2] was 0.0037 µM, the EC50 [3] was 0.011 µM and the CC50 (MT4) was > 307 µM. For the same molecule, the selectivity ratio [1] was 84700.
`Cc1cc(/C=C/C#N)cc(C)c1Oc1nc(NC2CCN(Cc3ccc(B(O)O)cc3)CC2)nc2c1COC2` showed an EC50 [2] of 0.00723 µM, an EC50 [4] of 0.00985 µM and an EC50 [5] of 0.0197 µM. It also gave an EC50 [6] of 0.00719 µM, an EC50 [7] of 0.0399 µM and an EC50 [3] of 0.0173 µM. It also gave an EC50 [8] of 0.0432 µM, an EC50 [9] of 0.0779 µM and a CC50 (MT4) of 25.6 µM.
For `Cc1cc(C#N)cc(C)c1Oc1ccnc(S(=O)(=O)CC(=O)Nc2ccc(C#N)cc2)n1`, the EC50 [2] was 0.002 µM, the CC50 (MT4) was > 6.01 µM and the selectivity ratio [1] was > 3540.
`N#Cc1ccc(Nc2nccc(Oc3ccc4ccccc4c3Br)n2)cc1` showed an EC50 [2] of 0.0024 µM, an EC50 [9] of 6.75 µM and a CC50 (MT4) of 154 µM. It also gave a selectivity ratio [1] of 65600.
For `COC(=O)n1ncc(-c2cc(C)c(Oc3ccnc(Nc4ccc(C#N)cc4)n3)c(C)c2)n1`, the EC50 [2] was 0.013 µM, the EC50 [6] was 0.022 µM and the EC50 [3] was 0.16 µM. For the same molecule, the CC50 (MT2) was > 242 µM.
With `Cc1cc(-c2ccc(N(C)C)cc2)cc(C)c1Oc1nc(NC2CCN(Cc3ccc(C(N)=O)cc3)CC2)nc2ccsc12` the EC50 [9] was > 23.5 µM, the EC50 [10] was 0.245 µM and the EC50 [11] was 0.173 µM. For the same molecule, the EC50 [12] was 0.176 µM, the EC50 [13] was 1.11 µM and the EC50 [14] was 0.585 µM. It also gave an EC50 [15] of 0.556 µM and an EC50 [16] of 1.25 µM.
`N#Cc1ccc(Nc2ncc(CO)c(Nc3c(F)cc(-c4ccc(C#N)cc4)cc3F)n2)cc1` showed an EC50 [2] of 0.0009 µM, an EC50 [4] of 0.0019 µM and an EC50 [5] of 0.0082 µM. The EC50 [7] was 0.162 µM, the EC50 [3] was 0.0035 µM and the half-life [17] was 45.9 h. The CLint scaled [18] was 0.0458 L/h/kg and the CC50 (MOLT-4) was 225 µM.
Work on `Cc1cc(-c2ccc(C#N)cc2)cc(C)c1Oc1nc(NC2CCN(Cc3ccc(S(N)(=O)=O)cc3)CC2)nc2ccsc12` yielded an EC50 [9] of 0.103 µM, an EC50 [10] of 0.0444 µM and an EC50 [11] of 0.0132 µM. The EC50 [12] was 0.017 µM, the EC50 [13] was 0.0274 µM and the EC50 [14] was 0.0308 µM. The EC50 [15] was 0.0536 µM and the EC50 [16] was 0.0599 µM.
`Cc1cc(C(C#N)c2ccccc2F)nc(Nc2ccc(C#N)cc2)n1` (stereo not given) gave an EC50 [2] of 0.0018 µM.
For `Cc1cc(-c2ccoc2)cc(C)c1Oc1nc(NC2CCN(Cc3ccc(C(N)=O)cc3)CC2)nc2ccsc12`, the EC50 [9] was 0.813 µM, the EC50 [10] was 0.177 µM and the EC50 [11] was 0.0748 µM. It also gave an EC50 [12] of 0.0575 µM, an EC50 [13] of 0.262 µM and an EC50 [14] of 0.18 µM. The EC50 [15] was 0.222 µM and the EC50 [16] was 0.525 µM.
`N#Cc1ccc(Nc2nc(N)cc(Oc3c(F)cc(-c4ccc(C#N)cc4)cc3F)n2)cc1` gave an EC50 [2] of 0.0018 µM, an EC50 [4] of 0.016 µM and an EC50 [5] of 0.032 µM. The EC50 [6] was 0.002 µM, the EC50 [7] was 1.05 µM and the EC50 [3] was 0.008 µM. The EC50 [9] was 0.01 µM and the solubility at 24 h [19] was < 1 µg/mL.
For `Cc1cc(/C=C/C#N)cc(C)c1Nc1ccnc(Nc2ccc(C#N)cc2)n1` [RILPIVIRINE], the CC50 (MT4) was > 3.98 µM.
In the case of `N#Cc1ccc(Nc2nccc(Oc3ccc4cccnc4c3Br)n2)cc1`, the IC50 [20] is reported as 0.011 µM and the CC50 (MT2) is reported as > 299 µM.
